Results as given in article PMC7067379, “Mapping the S1 and S1’ subsites of cysteine proteases with new dipeptidyl nitrile inhibitors as trypanocidal agents” (PLoS Neglected Tropical Diseases, 2020).
Read-outs that look alike come from different tables or passages of the source.

Assays:
[1] = target: cathepsin S (CatS) (Homo sapiens, UniProt P25774); assay: Cathepsin S enzyme inhibition; assay type: biochemical; conditions: SD lower than 15%; read-out: pKi CatS (converted)
Experimental: (§1) Enzyme inhibition studies for Cz and LmCPB were performed as previously described for Cz. The experimental procedures are described in the Supporting Information (see chapter S3). Cathepsins B, L, S were assayed as reported.

[2] = target: cathepsin B (CatB) (Homo sapiens, UniProt P07858); assay: Cathepsin B enzyme inhibition; assay type: biochemical; conditions: for Ki: SD lower than 15%, read-out: pKi CatB (converted)
[3] = Mammalian cytotoxicity assay (MTT); assay type: cell-based; conditions: rhesus monkey, LLCMK2 cells;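 further: Read-out is absorbance at 570 nm of formazan taken up in DMSO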
Experimental: LLCMK2 cells were cultured in 96-well plates at a concentration of 5 x 10^4 cells/ml. After 48 h, the plates were washed twice with PBS and 200 μL RPMI medium was added with serial dilutions of the compounds and benznidazole (1.95 μM to 250 μM) in triplicate. After 72 h at 37 °C, the cytotoxic activity of the compounds was determined by the classical MTT [3- (4,5-dimethylthiazol-2-yl) -2,5-diphenyltetrazolium bromide] method. Briefly, 50 μL MTT dissolved in PBS (2.0 mg mL^-1) was added to each well and the plates were incubated for 4 h at 37 °C. The formed formazan crystals were dissolved with DMSO (50 μL/well) and the absorbance of the samples was measured by spectrophotometer at 570 nm after 30 min.

[4] = target: cathepsin L (CatL) (Homo sapiens, UniProt P07711); assay: Cathepsin L enzyme inhibition; assay type: biochemical; conditions: SD lower than 15%; read-out: pKi CatL (converted)
[5] = target: Leishmania mexicana CPB (LmCPB) (Leishmania mexicana, UniProt P36400); assay: LmCPB enzyme inhibition; assay type: biochemical; conditions: SD lower than 15%; read-out: pKi LmCPB (converted)
Experimental: as §1

[6] = system: T. cruzi Tulahuen LacZ strain, intracellular amastigote forms; assay: In vitro trypanocidal activity on intracellular amastigote forms (Tulahuen strain); assay type: cell-based, Trypanosoma cruzi; conditions: for SI (selective index): from EC50 (T. cruzi) and CC50 (LLCMK2)
Experimental: Cells were evaluated in 96-well plates. Cells from the LLCMK2 lineage were plated at a concentration of 5x10^4 cells mL^-1. Trypomastigote forms of the Tulahuen LacZ strain were added at a concentration of 5×10^5 parasites mL^-1 and placed in the incubator at 37°C with 5% CO2 for 24 h. After the incubation period, the trypomastigote forms present were removed by successive washes with PBS, remaining only as intracellular amastigote forms. Compounds were added at different concentrations (1.95 μM to 250 μM serial dilutions) and incubated for 72 h. At the end of this period, the substrate CPRG (chlorophenol red β-D-galactopyranoside, 400 μM in 0.3% Triton X-100, pH 7.4) was added. […] Benznidazole was used as a positive control in the same concentrations as the substances, and DMSO as a negative control. Compounds were solubilized in DMSO. The selectivity index (SI) was calculated using the formula: […]. All statistical analyses were done with the program GraphPad Prism v.5.

[7] = target: T1, Human recombinant cathepsin K (Homo sapiens, UniProt P43235); assay: Cathepsin K assay; assay type: biochemical; conditions: SD lower than 15%; read-out: pKi CatK (converted)
T1 sequence (P43235 115-329): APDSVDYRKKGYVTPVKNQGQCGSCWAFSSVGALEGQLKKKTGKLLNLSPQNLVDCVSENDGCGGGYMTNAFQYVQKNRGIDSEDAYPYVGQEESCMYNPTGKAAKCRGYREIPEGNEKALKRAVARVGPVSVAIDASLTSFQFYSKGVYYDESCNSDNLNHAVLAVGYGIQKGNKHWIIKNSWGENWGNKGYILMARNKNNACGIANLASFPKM
Experimental: Human recombinant cathepsin K was assayed on a FLUOSTAR Optima plate reader at 25 °C with an excitation wavelength of 360 nm and an emission wavelength of 440 nm on a 96 well plate. The enzyme solution (23 μg/mL in 50 mM sodium acetate pH 5.5, 50 mM NaCl, 0.5 mM EDTA, 5 mM DTT) was diluted 1:100 with assay buffer (100 mM sodium citrate buffer pH 5.0, 100 mM NaCl, 1 mM EDTA, 0.01% CHAPS) containing 5 mM DTT and was then incubated at 37 °C for 30 min for activation. A 1.5 mM stock solution of the substrate Z-Leu-Arg-AMC was prepared in DMSO. […] The assay was performed with a final concentration of cathepsin K of 1.73 ng/mL. Stock solutions of inhibitors were prepared in DMSO. The final DMSO concentration was 2% (4 μL). Into a well containing 194.5 μL assay buffer, 0.8 μL of the fluorogenic substrate, DMSO and inhibitor solution (3.2 μL) were added. Upon addition of cathepsin K (1.5 μL), the measurement was started and followed for 20 min.

[8] = target: recombinant cruzain (Cz) (Trypanosoma cruzi, UniProt P25779); assay: Cruzain enzyme inhibition; assay type: biochemical; conditions: for Ki: SD lower than 15%, read-out: pKi Cz (converted)
Experimental: as §1

[9] = LLCMK2, 72 h, MTT, Table 2, read-out: CC50 cytotoxicity
[10] = Trypanosoma cruzi, TULAHUEN, 72 h, amastigote, Tulahuen strain, 72 h, Table 2, read-out: EC50 trypanocidal activity
[11] = Trypanosoma cruzi, TULAHUEN, read-out: pEC50, T. cruzi amastigote form (converted), S1 Table
[12] = S1 Table, maximum concentration used 250 µM, read-out: CC50
[13] = Trypanosoma cruzi, TULAHUEN, T. cruzi amastigote form, S1 Table, read-out: pEC50 (converted)
[14] = Trypanosoma cruzi, TULAHUEN, S1 Table, maximum concentration used 250 µM, read-out: EC50 T. cruzi

recombinant cruzain (Cz), sequence (P25779 123-337): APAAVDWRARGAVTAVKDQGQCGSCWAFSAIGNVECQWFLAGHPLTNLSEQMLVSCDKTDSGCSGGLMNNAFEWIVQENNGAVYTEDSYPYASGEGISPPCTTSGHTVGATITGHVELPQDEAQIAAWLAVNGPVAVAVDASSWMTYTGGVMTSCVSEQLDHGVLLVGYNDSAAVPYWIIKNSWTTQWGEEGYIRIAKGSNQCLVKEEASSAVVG
Leishmania mexicana CPB (LmCPB), sequence (P36400 126-443): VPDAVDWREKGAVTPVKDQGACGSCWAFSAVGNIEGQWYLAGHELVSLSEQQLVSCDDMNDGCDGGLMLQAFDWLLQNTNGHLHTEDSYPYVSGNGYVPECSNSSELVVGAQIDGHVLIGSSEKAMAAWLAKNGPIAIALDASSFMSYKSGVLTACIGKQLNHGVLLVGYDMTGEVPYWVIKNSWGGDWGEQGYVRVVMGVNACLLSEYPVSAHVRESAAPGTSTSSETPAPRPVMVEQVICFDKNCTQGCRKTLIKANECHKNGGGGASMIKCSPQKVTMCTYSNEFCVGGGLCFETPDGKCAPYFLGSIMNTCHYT
cathepsin L (CatL), sequence (P07711 114-333): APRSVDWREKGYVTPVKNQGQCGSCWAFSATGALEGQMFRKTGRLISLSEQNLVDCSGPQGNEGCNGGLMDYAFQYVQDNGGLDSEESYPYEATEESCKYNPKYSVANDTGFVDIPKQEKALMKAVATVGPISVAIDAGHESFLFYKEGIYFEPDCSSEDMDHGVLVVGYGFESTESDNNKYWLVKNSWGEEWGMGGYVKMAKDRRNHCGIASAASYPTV
cathepsin S (CatS), sequence (P25774 115-331): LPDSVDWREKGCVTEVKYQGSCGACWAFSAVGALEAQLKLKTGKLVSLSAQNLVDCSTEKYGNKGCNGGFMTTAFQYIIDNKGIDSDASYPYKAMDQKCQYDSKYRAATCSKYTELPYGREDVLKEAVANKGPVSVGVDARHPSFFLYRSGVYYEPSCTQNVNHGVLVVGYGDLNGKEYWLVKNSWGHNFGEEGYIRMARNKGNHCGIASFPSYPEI

SMILES | Ki [1] | remaining activity at 10 µM ([2]; 10 μM, replicates = 2, n.i. = no inhibition observed at 10 μM) | CC50 at 72 h [3, 9] | Ki [4] | Ki [5] | EC50 [6, 10] | EC50 [6, 11] | SI (selective index) ([6]; Table 2) | Ki [7] | Ki [8] | Ki [2] | CC50 at 72 h [3, 12] | EC50 [6, 13] | fold increase in trypanocidal potency ([6]; compared with compound 9) | EC50 [6, 14] | EC50 ([6]; Trypanosoma cruzi, TULAHUEN, 72 h, read-out: EC50 trypanocidal activity, amastigote, Tulahuen strain, 72 h, Table 2) | EC50 ([6]; amastigote, Tulahuen strain, 72 h, Table 2, read-out: EC50 trypanocidal activity) | EC50 ([6]; Trypanosoma cruzi, TULAHUEN, read-out: EC50 T. cruzi, S1 Table, maximum concentration used 250 µM) | difference in pKi, Cz ([8]; relative to compound 9, sign not given, direction by cell colour or wording)
Cn1nc(C(C)(C)C)cc1C(=O)N[C@@H](Cc1ccncc1)C(=O)NC1(C#N)CC1 [Compound 10, (S)-3-(tert-Butyl)-N-(1-((1-cyanocyclopropyl)amino)-1-oxo-3-(pyridin-4-yl)propan-2-yl)-1-methyl-1H-pyrazole-5-carboxamide] | 2510 nM | 93% | > 100000 nM | 25.1 nM | 398 nM | 67600 ± 8220 nM | 63100 nM | > 1.5 | 10000 nM | 251 nM |  |  |  |  |  |  |  |  | 
C[C@@H](OCc1ccccc1)[C@@H](C#N)NC(=O)[C@H](Cc1cccc(Cl)c1)NC(=O)c1cc(C(C)(C)C)nn1C [Compound 60, N-((S)-1-(((1R,2R)-2-(Benzyloxy)-1-cyanopropyl)amino)-3-(3-chlorophenyl)-1-oxopropan-2-yl)-3-(tert-butyl)-1-methyl-1H-pyrazole-5-carboxamide] | 316 nM |  | > 100000 nM | 7.94 nM | 158 nM | 4900 ± 450 nM |  | > 20 | 1000 nM | 63.1 nM | 501 nM | 125000 nM | 5010 nM | 14.5 fold |  |  |  |  | 
C[C@@H](O)[C@@H](C#N)NC(=O)[C@H](Cc1cccc(Cl)c1)NC(=O)c1cc(C(C)(C)C)nn1C [Compound 69, 3-(tert-butyl)-N-((S)-3-(3-chlorophenyl)-1-(((1R,2R)-1-cyano-2-hydroxypropyl)amino)-1-oxopropan-2-yl)-1-methyl-1H-pyrazole-5-carboxamide] | 251 nM |  | > 100000 nM | 6.31 nM | 1000 nM | 30600 ± 3110 nM |  |  | 794 nM | 126 nM | 6310 nM |  | 31600 nM |  | 30500 nM |  |  |  | 
Cn1nc(C(C)(C)C)cc1C(=O)N[C@@H](Cc1ccccc1)C(=O)NC1(C#N)CC1 [Compound 9] | 158 nM |  | > 100000 nM | 6.31 nM | 79.4 nM |  | 79400 nM | > 1.4 | 316 nM | 50.1 nM | 15800 nM |  |  |  |  | 71800 nM | 72000 ± 5700 nM |  | 
CC(C)C[C@H](NC(=O)c1cc(C(C)(C)C)nn1C)C(=O)NC1(C#N)CC1 [Compound 11] | 39.8 nM |  |  | 25.1 nM | 50.1 nM |  | > 100000 nM |  | 5.01 nM | 15.8 nM | 31600 nM | > 100000 nM |  |  |  |  |  | > 100000 nM | 0.5
O=C(Cn1ccnc1[N+](=O)[O-])NCc1ccccc1 [Benznidazole, reference compound] |  |  | > 100000 nM |  |  | 4400 ± 470 nM |  | > 23 |  |  |  |  | 3980 nM |  | 4300 nM |  |  |  | 
